# Measurements as given in US20240415825A1, “COMPOUNDS FOR THE TREATMENT OF MALARIA” (FUNDACIÓ INSTITUT DE BIOENGINYERIA DE CATALUNYA, priority 2021, published 2024).
# “Also recorded” adds a separate entry of the source.
# Columns and labels:
# [1] = tested on: Plasmodium berghei CTRP-GFP; test: Gametocyte to ookinete transition inhibition; type: cell-based; conditions: up to a concentration of 2 μM
# Experimental: Eight days before ookinete production, 200 μL of Plasmodium berghei CTRP-GFP (which expresses GFP when reaching ookinete stage) (Vlachou, D. et al., 2004) in cryopreservation solution (RBC pellet:RPMI:30% glycerol in water, 1:1:2) was administered i.p. to a BALB/c mouse. Four days later this mouse was the donor to infect i.p. with 5×10^7 parasitized red blood cells in 200 μL of PBS three mice that one hour before the infection had been pretreated i.p. with phenylhydrazine (120 μL of a 10 mg/mL solution in PBS).
# For ookinete production, up to 1 mL of blood carrying gametocytes was collected from each animal by intracardiac puncture and diluted in 30 mL of ookinete medium: 10.4 g/L of RPMI supplemented with […], 0.05% w/v hypoxanthine, 0.02% w/v xanthurenic acid, 50 U/mL penicillin and 50 μg/mL streptomycin (Invitrogen), 20% heat-inactivated fetal bovine serum (FBS, Invitrogen), 25 mM HEPES, pH 7.4.
# 24 h later, samples were diluted 1:100 in PBS and analyzed in a LSRFortessa™ flow cytometer (BD Biosciences) set up with the 5 lasers, 20 parameters standard configuration. The GFP positive cell population was selected and counted using 488 nm laser excitation and a 525/40 nm emission collection filter. BD FACSDiva software (BD biosciences) was used in data collection, and Flowing Software 2.5.1 (Turku Centre for Biotechnology) was used for analysis.
# [2] = In vivo toxicity assay in mice; design: species or system BALB/c mice; conditions: male mice
# Experimental: BALB/c female and male mice (Janvier Laboratories) were maintained with unlimited access to food and water under standard environmental conditions (20-24° C. and 12/12 h light/dark cycle). […] First, the lowest dose was intravenously injected to one female and one male mice. An oxygen stream of 4% isoflurane was used to anesthetize the mice, which were then maintained during the whole procedure (less than 3 minutes) with 2.5% isoflurane.
# After the administration, mice were observed and different parameters related to their behavior (lethargy, motility alterations, seizures, coma, automutilation, aggressiveness, vocalizations, stereotyped movements) and physical conditions (pain, respiratory disturbances, tachycardia or bradycardia, dehydration, hair loss, body weight loss, dermatitis, bad hygiene, pruritus, tearing) were followed. If after 48 h no deleterious effects were observed, the following dose was administered to two other male and female mice.
# [3] = tested on: P. falciparum NF54-gexp02-Tom strain gametocytes; test: microbe, parasite or virus in culture; type: cell-based; conditions: Plasmodium falciparum, NF54, 48 h, read-out: IC50 on early gametocytes
# Experimental: Cultures of the P. falciparum NF54-gexp02-Tom strain (developed and authenticated by Portugaliza, H. P. et al., 2019 and kindly provided by Prof. Alfred Cortes), were maintained in standard conditions in RPMI medium supplemented with 0.5% Albumax II and 2 mM choline, synchronized in ring stages with sorbitol lysis, and diluted to 2% parasitemia. To trigger sexual conversion, choline was removed from the medium and cultures were maintained in the same conditions for 48 h after synchronization (cycle 0). In the next cycle (cycle 1), parasites were treated with 50 mM N-acetylglucosamine (GlcNac) in order to kill asexual parasites, and maintained in RPMI supplemented with 10% human serum. Medium was refreshed daily and GlcNac was kept during 4 days.
# Controls of untreated parasites as well as of parasites treated with a lethal dose of chloroquine were prepared. Gametocytemia was monitored daily by light microscopy until the majority of parasites (˜90%) could be identified as stage V gametocytes. At that point, Giemsa smears of each well were prepared and mature gametocytes were manually counted (10,000 cells were counted for each replica by two investigators blinded to group assignment). […] Afterwards, the culture was treated for 48 h with the drugs and the gametocytemia determined as above.
# P. falciparum K1 strain = test: P. falciparum growth inhibition (K1 strain); type: cell-based; conditions: Plasmodium falciparum, read-out: IC50 in K1 strain (μM) ± SEM
structure (smiles),measurement,setting,value
COc1cc2c(cc1OC)C(=O)C(CC1CCN(CNc3c4c(nc5cc(Cl)ccc35)CCCC4)CC1)C2 (stereo not shown) [DONE3TCI],effect on ookinete development,[1],did not have an observable effect; also recorded: does not show any observable effect
same,dose at which toxicity starts being observed,[2],3 mg/kg
same,IC50,[3],285 ± 56 nM
same,IC50,P. falciparum K1 strain,0.36 ± 0.07 µM
